Measured values from patent US8748452B2, “Indolizine derivative and use thereof for medical purposes” (Kissei Pharmaceutical Co., Ltd., priority 2009, dated 2014).

How the values were obtained:
[1] = target: T1, Xanthine oxidase (from bovine milk, Sigma) (Bos taurus, UniProt P80457); experiment: Xanthine oxidase inhibitory activity; assay type: biochemical; conditions: xanthine oxidase from bovine milk 0.02 units/mL, xanthine 200 μM, 10 minutes at room temperature, absorbance at 290 nm
T1 construct: Xanthine oxidase (from bovine milk, Sigma); purchased Sigma; host or cells: bovine milk
T1 sequence (P80457 whole entry): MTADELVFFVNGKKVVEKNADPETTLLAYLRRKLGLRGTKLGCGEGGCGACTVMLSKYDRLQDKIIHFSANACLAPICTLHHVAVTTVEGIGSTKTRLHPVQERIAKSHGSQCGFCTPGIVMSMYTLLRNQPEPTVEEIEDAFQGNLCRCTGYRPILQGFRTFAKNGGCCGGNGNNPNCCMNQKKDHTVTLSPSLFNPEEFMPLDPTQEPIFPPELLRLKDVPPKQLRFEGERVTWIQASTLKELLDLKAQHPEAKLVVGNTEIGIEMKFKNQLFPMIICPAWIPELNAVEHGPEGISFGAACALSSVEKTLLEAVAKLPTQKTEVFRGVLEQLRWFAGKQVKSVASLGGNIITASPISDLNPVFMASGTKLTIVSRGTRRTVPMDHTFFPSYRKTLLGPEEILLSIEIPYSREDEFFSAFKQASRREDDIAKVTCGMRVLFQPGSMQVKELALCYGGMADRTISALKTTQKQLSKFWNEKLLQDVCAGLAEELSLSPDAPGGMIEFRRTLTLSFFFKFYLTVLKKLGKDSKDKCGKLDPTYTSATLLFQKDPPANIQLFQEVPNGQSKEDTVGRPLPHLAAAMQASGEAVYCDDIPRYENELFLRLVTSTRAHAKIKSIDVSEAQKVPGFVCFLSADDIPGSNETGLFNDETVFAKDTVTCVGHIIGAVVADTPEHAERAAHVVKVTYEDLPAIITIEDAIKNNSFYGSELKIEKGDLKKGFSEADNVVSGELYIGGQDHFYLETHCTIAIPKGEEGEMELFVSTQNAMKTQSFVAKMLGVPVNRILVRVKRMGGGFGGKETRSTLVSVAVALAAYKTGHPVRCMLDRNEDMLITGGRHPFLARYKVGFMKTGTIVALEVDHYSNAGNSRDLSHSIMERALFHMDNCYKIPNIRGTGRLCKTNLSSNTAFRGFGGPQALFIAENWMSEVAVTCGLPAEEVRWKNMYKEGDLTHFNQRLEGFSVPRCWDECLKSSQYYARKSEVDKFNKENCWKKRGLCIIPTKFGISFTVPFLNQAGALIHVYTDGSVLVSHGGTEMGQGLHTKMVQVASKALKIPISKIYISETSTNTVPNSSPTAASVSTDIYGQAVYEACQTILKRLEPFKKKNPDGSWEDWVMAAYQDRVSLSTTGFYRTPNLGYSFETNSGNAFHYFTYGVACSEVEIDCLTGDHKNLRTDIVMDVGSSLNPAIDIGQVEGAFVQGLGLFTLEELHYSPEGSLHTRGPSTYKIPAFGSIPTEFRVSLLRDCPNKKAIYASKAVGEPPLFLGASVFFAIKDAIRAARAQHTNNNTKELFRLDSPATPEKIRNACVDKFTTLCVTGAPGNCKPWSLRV
Procedure: (1) Preparation of test compounds
Test compounds were dissolved in DMSO (Wako pure chemical) at 40 mM concentration and then diluted to intended concentrations with phosphate-buffered saline (PBS).
(2) Method for measurement
Xanthine oxidase (from bovine milk, Sigma) was prepared with phosphate-buffered saline (PBS) at 0.02 units/mL, and then the solution was added to 96 well plates at 50 μL/well. In addition, test compounds diluted with PBS were added at 50 μL/well. Xanthine (Wako pure chemical) at 200 μM prepared with PBS was added at 100 μL/well, and the mixture was reacted for 10 minutes at room temperature. Absorbance at 290 nm was measured using a microplate reader SpectraMax Plus 384 (Molecular device). The absorbance under a condition without xanthine is 0%, and control without test compounds is 100%. Fifty % inhibitory concentration (IC50) of test compounds was calculated (Table 17). Ex. No. in the table indicates Example number.

[2] = target: T2, human URAT1 (Homo sapiens, UniProt Q96S37); experiment: Inhibitory activity of uric acid transport with human URAT1 expressing cells; assay type: cell-based; conditions: COS-7; concentration of 10 μM; 14C-labeled uric acid 20 μM, 5 minutes uptake, COS7 cells transiently expressing human URAT1
T2 construct: expressed in transfected cells; host or cells: COS7 cells (RIKEN CELL BANK RCB0539), transient, pcDNA3.1
T2 sequence (Q96S37 1-553): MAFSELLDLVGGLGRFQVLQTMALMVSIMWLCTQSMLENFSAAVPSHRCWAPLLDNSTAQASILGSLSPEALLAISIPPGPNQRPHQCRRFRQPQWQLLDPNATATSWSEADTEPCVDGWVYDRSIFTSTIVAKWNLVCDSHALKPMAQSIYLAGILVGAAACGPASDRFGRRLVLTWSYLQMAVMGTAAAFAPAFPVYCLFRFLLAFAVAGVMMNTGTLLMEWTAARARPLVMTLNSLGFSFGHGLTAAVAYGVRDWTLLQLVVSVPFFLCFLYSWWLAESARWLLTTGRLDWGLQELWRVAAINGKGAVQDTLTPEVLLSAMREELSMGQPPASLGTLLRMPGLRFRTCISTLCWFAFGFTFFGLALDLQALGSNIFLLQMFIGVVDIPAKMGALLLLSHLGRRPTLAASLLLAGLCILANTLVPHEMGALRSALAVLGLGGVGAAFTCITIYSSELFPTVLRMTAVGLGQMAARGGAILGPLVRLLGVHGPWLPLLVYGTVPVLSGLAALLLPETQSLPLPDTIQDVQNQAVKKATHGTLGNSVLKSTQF
Procedure: (1) Preparation of transiently human URAT1 expressing cells
Full length human URAT1 cDNA (NCBI Accession No. NM_144585) was subcloned into expression vector, pcDNA3.1 (Invitrogen). Human URAT1 expression vector was transfected into COS7 cells (RIKEN CELL BANK RCB0539) using Lipofectamine 2000 (Invitrogen). COS7 cells were seeded in collagen-coated 24 well plates (Beckton Dickinson) at 3×10^5 cells / well and cultured in D-MEM culture medium (Invitrogen) containing 10% fetal bovine serum (Sanko Junyaku) for 2 hours at 37° C. under the condition of 5% CO2. For 1 well, 2 μL of Lipofectamine 2000 was diluted in 50 μL of OPTI-MEM (Invitrogen) and allowed to stand at room temperature for 7 minutes (hereinafter referred to as Lipo2000-OPTI). For 1 well, 0.8 μg of human URAT1 expression vector was diluted in 50 μL of OPTI-MEM (Invitrogen) and combined gently with Lipo2000-OPTI. After standing at room temperature for 25 minutes, the mixture was added to COS7 cells at 100 μL/well. Furthermore, COS7 cells were cultured for 2 days at 37° C. under the condition of 5% CO2 and used for measuring inhibitory activity on the uptake.
(2) Preparation of test compounds
Test compounds were dissolved in DMSO (Wako pure chemical) at 10 mM concentration and then diluted to 2 times higher concentration than intended with pre-treatment buffer (125 mM sodium gluconate, 4.8 mM potassium gluconate, 1.2 mM potassium dihydrogen phosphate, 1.2 mM magnesium sulfate, 1.3 mM calcium gluconate, 5.6 mM glucose, 25 mM Hepes, pH 7.4). Pre-treatment buffer without test compounds was used for control. In addition, an equal volume of pre-treatment buffer containing ^14C-labeled uric acid (American Radiolabeled Chemicals, Inc.) was added to test compounds and control, and finally assay buffer including 20 μM uric acid was prepared.
(3) Method for measurement
All tests were performed on hot-plate at 37° C. Pre-treatment buffer and assay buffer were incubated at 37° C. and then used for assays. Medium was removed from plates, and 700 μL of pre-treatment buffer was added, and the cells were pre-incubated for 10 minutes. After repeating the same step, pre-treatment buffer was removed, and assay buffer was added at 400 μL/well. The uptake reaction was carried out for 5 minutes. After terminating the reaction, assay buffer was rapidly removed, and the cells were washed twice with addition of ice-cold pre-treatment buffer at 1.2 mL/well. Then, the cells were lysed by addition of 0.2 mol/L sodium hydroxide at 300 μL/well. The lysed solutions were transferred into Picoplate (PerkinElmer), and Microscinti 40 (PerkinElmer) was added at 600 μL/well. After mixing, the radioactivity was counted in a liquid scintillation counter (PerkinElmer). The radioactivity in COS7 cells not transfected with URAT1 expression vector was also counted under the same condition as control. As a result, it was shown that compounds of Examples 5, 8, 17, 18, 22, 40 and 55 have inhibitory activity of 50% or higher in a concentration of 10 μM.

[3] = test system: male CD (SD) IGS rats; experiment: Serum hypouricemic effect; assay type: in vivo; conditions: Rattus norvegicus; 1 mg/kg oral gavage, overnight fasted male rats, serum at 2 hours after administration; read-out: percent decrease in uric acid
Procedure: Test compounds at 1 mg/kg suspended in 0.5% methylcellulose solution were administered by oral gavage administration to overnight fasted male CD (SD) IGS rats (5-week-old, Charls River Japan). At 2 hours after administration, blood was collected under ether anesthesia from abdominal aorta, and serum was separated according to general method. Serum uric acid values were determined by use of uric acid measurement kit (Uric acid C-Test Wako: Wako pure chemical), and percent decrease in uric acid was calculated according to the formula described below. As a result, it was shown that compounds of Examples 2, 7, 10, 22, 23, 25, 37, 49, 50 and 58 have over 60% percent decrease in uric acid.
Percent decrease in uric acid (%)=(Serum uric acid values in control animals−Serum uric acid values in animals administered test compounds)×100/Serum uric acid values in control animals

N#Cc1cc(-c2ccc(C(=O)O)c(O)c2)n2cc(F)cc(F)c12 [Example 55]
IC50 [1]: 6 nM
inhibition at 10 µM [2]: ≥ 50%

N#Cc1cc(-c2ccc(C(=O)O)cc2)n2cc(F)cc(F)c12 [Example 40]
IC50 [1]: 14 nM
inhibition at 10 µM [2]: ≥ 50%

Cc1cc2c(C#N)cc(-c3ccc(C(=O)O)cc3)n2cc1F [Example 8]
IC50 [1]: 6 nM
inhibition at 10 µM [2]: ≥ 50%

Cc1ccc2c(C#N)cc(-c3ccc(C(=O)O)cc3)n2c1 [Example 5]
IC50 [1]: 10 nM
inhibition at 10 µM [2]: ≥ 50%

Cc1cc2c(C#N)cc(-c3ccc(C(=O)O)c(O)c3)n2cc1F [Example 22]
IC50 [1]: 3 nM
inhibition at 10 µM [2]: ≥ 50%
inhibition in vivo at 1 mg/kg [3]: > 60%

Cc1ccn2c(-c3ccc(C(=O)O)c(O)c3)cc(C#N)c2c1 [Example 18]
IC50 [1]: 3 nM
inhibition at 10 µM [2]: ≥ 50%
